For 41 compounds, IC50, inhibition and inhibition in vivo results are on record in ChEMBL document CHEMBL3879893, “Nuclear transport modulators and uses thereof” (2011).

The structures appear in SMILES notation. Calls of active or inactive are those of the source. The rule behind the calls is not given here.

What is called IC50 is the midpoint of a concentration-inhibition curve.

T1 sequence (O14980 whole entry, the tested form may be a part): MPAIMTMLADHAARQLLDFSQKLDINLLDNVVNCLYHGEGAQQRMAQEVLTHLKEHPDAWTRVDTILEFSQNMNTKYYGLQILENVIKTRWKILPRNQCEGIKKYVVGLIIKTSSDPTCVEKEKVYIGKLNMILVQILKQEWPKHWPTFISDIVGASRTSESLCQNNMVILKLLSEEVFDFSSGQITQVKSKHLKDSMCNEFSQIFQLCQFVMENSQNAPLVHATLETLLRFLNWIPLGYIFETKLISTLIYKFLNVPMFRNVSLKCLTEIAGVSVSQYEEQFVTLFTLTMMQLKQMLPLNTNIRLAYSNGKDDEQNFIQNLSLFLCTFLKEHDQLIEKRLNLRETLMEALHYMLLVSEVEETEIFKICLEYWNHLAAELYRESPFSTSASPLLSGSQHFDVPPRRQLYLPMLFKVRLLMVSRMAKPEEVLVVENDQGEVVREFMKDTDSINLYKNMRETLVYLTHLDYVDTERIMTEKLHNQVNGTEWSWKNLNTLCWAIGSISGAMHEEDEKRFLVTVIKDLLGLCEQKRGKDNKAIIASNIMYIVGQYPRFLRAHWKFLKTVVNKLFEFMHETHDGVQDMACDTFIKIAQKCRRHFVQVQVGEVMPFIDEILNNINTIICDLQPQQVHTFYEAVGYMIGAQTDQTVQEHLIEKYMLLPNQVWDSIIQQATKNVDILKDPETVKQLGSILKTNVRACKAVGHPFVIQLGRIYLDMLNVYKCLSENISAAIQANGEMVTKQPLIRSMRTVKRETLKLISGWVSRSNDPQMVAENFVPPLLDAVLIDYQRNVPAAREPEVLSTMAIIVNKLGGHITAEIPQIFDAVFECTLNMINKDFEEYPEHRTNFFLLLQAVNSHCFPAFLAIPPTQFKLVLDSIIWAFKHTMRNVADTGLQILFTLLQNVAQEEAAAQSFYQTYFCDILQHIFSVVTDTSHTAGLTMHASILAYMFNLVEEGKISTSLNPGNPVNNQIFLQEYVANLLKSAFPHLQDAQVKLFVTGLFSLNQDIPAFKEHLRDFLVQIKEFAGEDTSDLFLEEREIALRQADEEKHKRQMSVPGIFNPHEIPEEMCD

One experiment addresses T1, Exportin-1 (Homo sapiens, UniProt O14980). The experiment can be described thus: Inhibition of Crm1 in human U2OS cells expressing GFP-fused HIV1 Rev assessed as decrease in nuclear export of GFP-fused HIV1 Rev after 1 hr by Hoechst 33258 staining-based assay. Format: cell-based.
Conditions: not given
Turning to `CC(C)OC(=O)/C=C\n1cnc(-c2cccc(Cl)c2)n1`, the 50% inhibitory concentration (IC50) is at most 1000 nM.
Same read-out and setting: next, `O=C(/C=C\c1nnc(-c2cccc(Cl)c2)[nH]1)Nc1ccccc1`: at least 10000 nM; `CC(C)Nc1cc(-c2ncn(/C=C\C(=O)OC(C)C)n2)cc(C(F)(F)F)n1`: at most 1000 nM; `CC(C)OC(=O)/C=C/n1cnc(-c2cccc(Cl)c2)n1`: at least 10000 nM.
Still for that read-out and setting: then `CC(C)OC(=O)/C=C\n1cnc(-c2cc(Cl)nc(OC(C)C)c2)n1`, with at most 1000 nM.
`CC(C)OC(=O)/C=C\n1cnc(-c2csc(Br)n2)n1`: the IC50 was 1000 to 10000 nM.
With `O=C(/C=C\n1cnc(-c2cccc(Cl)c2)n1)NC1CCCC1`, the IC50 was at least 10000 nM.
On to `O=C(/C=C\n1cnc(-c2cccc(Cl)c2)n1)OC1CCOC1` (configuration not stated), for which the half-maximal inhibitory concentration (IC50) was at most 1000 nM.
For the compound `O=C(/C=C/n1cnc(-c2cccc(Cl)c2)n1)Nc1cccc(Cl)c1`, the half-inhibitory concentration (IC50) was at least 10000 nM.
On the same count and under the same terms, next, `O=C(/C=C\n1cnc(-c2cc(Cl)nc(Cl)c2)n1)OC1CNC1`: at most 1000 nM.
`CC(C)OC(=O)/C=C/Cn1cnc(-c2cccc(Cl)c2)n1`: the IC50 is 1000 to 10000 nM.
Same read-out and setting: then `CC(C)OC(=O)/C=C\n1cnc(-c2cc(Cl)ccc2N)n1`, with at most 1000 nM.
Consider `CC(C)OC(=O)/C=C\n1cnc(-c2cc(Cl)cc(OC(F)(F)F)c2)n1`, for which the IC50 is at most 1000 nM.
With `CC(C)OC(=O)/C=C\c1n[nH]c(-c2cc(Cl)cc(Cl)c2)n1`, the concentration for half-maximal inhibition (IC50) lay within 1000 to 10000 nM.
Still for that read-out and setting: then `O=C(/C=C\n1cnc(-c2cccc(Cl)c2)n1)OCc1cnc[nH]1`, with 1000 to 10000 nM.
Same read-out and setting: next, `CC(C)OC(=O)/C=C\n1cnc(-c2cccc(C(F)(F)F)c2)n1`: at most 1000 nM; `CC(C)OC(=O)/C=C\n1cnc(-c2cc(C#N)cc(OC(C)C)c2)n1`: at most 1000 nM; `COc1cc(Cl)cc(-c2ncn(/C=C\C(=O)OC(C)C)n2)c1`: at most 1000 nM.
`CC(C)Oc1cc(-c2ncn(/C=C\C#N)n2)cc(C(F)(F)F)c1`: the IC50 is at most 1000 nM.
Still for that read-out and setting: next, `O=C(/C=C\n1cnc(-c2cccc(Cl)c2)n1)OC1CNC1`: at most 1000 nM; `CC(C)OC(=O)/C=C\n1cnc(-c2ccc(Oc3ccc(Cl)cc3)cc2)n1`: 1000 to 10000 nM.
On the same count and under the same terms, next, `COc1ccc(Cl)cc1-c1ncn(/C=C\C(=O)OC(C)C)n1`: at most 1000 nM; `Cc1cccc(-c2ncn(/C=C\C(=O)OC(C)C)n2)c1`: at most 1000 nM.
As for `CC(C)OC(=O)/C=C/n1cnc(-c2cc(OCCN3CCCC3)cc(C(F)(F)F)c2)n1`, the half-maximal inhibitory concentration (IC50) is at least 10000 nM.
Turning to `CC(C)(C)OC(=O)Nc1ccc(NC(=O)/C=C/n2cnc(-c3cccc(Cl)c3)n2)cc1`, the 50% inhibitory concentration (IC50) is at least 10000 nM.
Take `CC(C)Nc1cc(-c2ncn(/C=C\C(=O)OC(C)C)n2)cc(Cl)n1`: the IC50 was at most 1000 nM.
The same measure, in the same setting: next, `CC(C)OC(=O)/C=C\n1cnc(-c2ccc(-c3ccccc3)c(F)c2)n1`: at least 10000 nM; `O=C(/C=C\n1cnc(-c2cccc(Cl)c2)n1)N1CCC1`: at most 1000 nM; `CCOC(=O)/C=C\n1cnc(-c2cc(Cl)cc(Cl)c2)n1`: at most 1000 nM.
Same read-out and setting: next, `CC(C)OC(=O)/C=C\c1nnc(-c2cccc(F)c2)[nH]1`: 1000 to 10000 nM; `COCCOc1cc(Cl)cc(-c2ncn(/C=C\C(=O)OC(C)C)n2)c1`: at most 1000 nM; `O=C(/C=C\n1cnc(-c2cccc(Cl)c2)n1)OC1COC(=O)C1` (configuration not stated): 1000 to 10000 nM.
The same measure, in the same setting: next, `CN(C(=O)/C=C\c1nnc(-c2cccc(Cl)c2)[nH]1)c1ccccc1`: at least 10000 nM.
Consider `CC(C)OC(=O)/C=C\c1n[nH]c(-c2cccc(Cl)c2)n1`, for which the IC50 was at most 1000 nM.
Still for that read-out and setting: then `O=C(/C=C\n1cnc(-c2cccc(Cl)c2)n1)OC1CCCC1`, with at most 1000 nM.
Consider `COc1cc(-c2ncn(/C=C\C(=O)OC(C)C)n2)cc(C(F)(F)F)c1`, for which the IC50 is at most 1000 nM.
The same measure, in the same setting: next, `C[S+]([O-])/C=C\n1cnc(-c2cccc(Cl)c2)n1` (configuration not stated): 1000 to 10000 nM; `O=C(/C=C\n1cnc(-c2cccc(Cl)c2)n1)OCC1CCCN1` (configuration not stated): 1000 to 10000 nM; `CCOC(=O)/C=C\n1cnc(-c2cc(Cl)cc(OC)c2)n1`: at most 1000 nM.
Turning to `CS(=O)(=O)/C=C\n1cnc(-c2cccc(Cl)c2)n1`, the IC50 was at most 1000 nM.

Another experiment concerns the target T1, Exportin-1. The experiment can be described thus: Inhibition of Crm1 in human H929 cells assessed as decrease in nuclear export of topoisomerase-2 by measuring caspase-3 levels at 0.1 to 10 uM preincubated for 16 hrs followed by addition of topoisomerase-2 inhibitor doxorubicin measured after 4 hrs by anti-caspase-3 assay. Type of experiment: cell-based.
Conditions: not given
`CC(C)OC(=O)/C=C\n1cnc(-c2cccc(Cl)c2)n1`: the inhibition result was “Active”.

Tested on in another experiment: not listed separately
The experiment can be described thus: Antitumor activity against 350 mm'3 human HCT116 cells xenografted in mouse assessed as tumor growth inhibition at 30 mg/kg, iv qd administered for 2 days measured after day 24 relative to control. Format: functional. As to conditions: HCT-116, iv, read-out: TGI. Background: A xenograft is tissue or cells of one species grown in another, often human tumour cells in immunodeficient mice.
Turning to `CCc1c2c(nc3ccc(OC(=O)N4CCC(N5CCCCC5)CC4)cc13)-c1cc3c(c(=O)n1C2)COC(=O)[C@]3(O)CC` [IRINOTECAN], the inhibition in vivo at 30 mg/kg was determined as 78%.
